Data taken from patent US20110230481A2, “DERIVATIVES OF TETRABROMOBENZIMIDAZOLE, A PROCESS FOR THE PREPARATION THEREOF, A PHARMACEUTICAL COMPOSITION COMPRISING THE SAME, A METHOD OF USING THE SAME, A METHOD FOR MODULATING OR REGULATING SERINE/THREONINE KINASES, AND SERINE/THREONINE KINASES MODULATING AGENT” (SELVITA S.A., priority 2009, published 2011).

How the values were obtained:
Test in all cases: KINOMEscan Max
Format in all cases: binding
[1] = biological target: ABL1(F317L)-phosphorylated (Homo sapiens, UniProt P00519, F317L)
How it was run: (§1)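 Quantitative PCR of the DNA tag reports competition between test compound and an immobilized, active-site directed ligand for binding to each DNA-tagged kinase.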

CAMK2G = biological target: T1, CAMK2G (Homo sapiens, UniProt Q13555)
T1 construct: DNA tag (qPCR label); purchased Ambit Kinomescan (contract screening)
How it was run: as §1

ACVR2B = biological target: T2, ACVR2B (Homo sapiens, UniProt Q13705); settings: 1 μM
T2 construct: DNA tag (qPCR label); purchased Ambit Kinomescan (contract screening)
How it was run: as §1

PAK6 = PAK6 (Homo sapiens, UniProt Q9NQU5)
How it was run: as §1

CHEK2 = CHEK2 (Homo sapiens, UniProt O96017)
How it was run: as §1

MST2 = MST2 (Homo sapiens, UniProt Q13188)
How it was run: as §1

AURKB = AURKB (Homo sapiens, UniProt Q96GD4)
How it was run: as §1

PIP5K1A = PIP5K1A (Homo sapiens, UniProt Q99755)
How it was run: as §1

[2] = biological target: T3, JAK1(JH2domain-pseudokinase) (Homo sapiens, UniProt P23458); settings: 1 μM
T3 construct: JAK1(JH2domain-pseudokinase)
T3 sequence (P23458 583-855 limits assumed): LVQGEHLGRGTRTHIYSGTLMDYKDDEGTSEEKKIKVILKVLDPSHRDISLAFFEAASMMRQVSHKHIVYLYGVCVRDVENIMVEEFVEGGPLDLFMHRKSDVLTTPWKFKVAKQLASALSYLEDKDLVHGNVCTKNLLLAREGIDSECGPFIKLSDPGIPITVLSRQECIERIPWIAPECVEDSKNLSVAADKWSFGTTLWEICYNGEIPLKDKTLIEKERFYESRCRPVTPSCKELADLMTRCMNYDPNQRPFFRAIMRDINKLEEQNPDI
How it was run: as §1

DMPK2 = DMPK2 (Homo sapiens, UniProt Q6DT37)
Sequence of DMPK2 (Q6DT37 whole entry): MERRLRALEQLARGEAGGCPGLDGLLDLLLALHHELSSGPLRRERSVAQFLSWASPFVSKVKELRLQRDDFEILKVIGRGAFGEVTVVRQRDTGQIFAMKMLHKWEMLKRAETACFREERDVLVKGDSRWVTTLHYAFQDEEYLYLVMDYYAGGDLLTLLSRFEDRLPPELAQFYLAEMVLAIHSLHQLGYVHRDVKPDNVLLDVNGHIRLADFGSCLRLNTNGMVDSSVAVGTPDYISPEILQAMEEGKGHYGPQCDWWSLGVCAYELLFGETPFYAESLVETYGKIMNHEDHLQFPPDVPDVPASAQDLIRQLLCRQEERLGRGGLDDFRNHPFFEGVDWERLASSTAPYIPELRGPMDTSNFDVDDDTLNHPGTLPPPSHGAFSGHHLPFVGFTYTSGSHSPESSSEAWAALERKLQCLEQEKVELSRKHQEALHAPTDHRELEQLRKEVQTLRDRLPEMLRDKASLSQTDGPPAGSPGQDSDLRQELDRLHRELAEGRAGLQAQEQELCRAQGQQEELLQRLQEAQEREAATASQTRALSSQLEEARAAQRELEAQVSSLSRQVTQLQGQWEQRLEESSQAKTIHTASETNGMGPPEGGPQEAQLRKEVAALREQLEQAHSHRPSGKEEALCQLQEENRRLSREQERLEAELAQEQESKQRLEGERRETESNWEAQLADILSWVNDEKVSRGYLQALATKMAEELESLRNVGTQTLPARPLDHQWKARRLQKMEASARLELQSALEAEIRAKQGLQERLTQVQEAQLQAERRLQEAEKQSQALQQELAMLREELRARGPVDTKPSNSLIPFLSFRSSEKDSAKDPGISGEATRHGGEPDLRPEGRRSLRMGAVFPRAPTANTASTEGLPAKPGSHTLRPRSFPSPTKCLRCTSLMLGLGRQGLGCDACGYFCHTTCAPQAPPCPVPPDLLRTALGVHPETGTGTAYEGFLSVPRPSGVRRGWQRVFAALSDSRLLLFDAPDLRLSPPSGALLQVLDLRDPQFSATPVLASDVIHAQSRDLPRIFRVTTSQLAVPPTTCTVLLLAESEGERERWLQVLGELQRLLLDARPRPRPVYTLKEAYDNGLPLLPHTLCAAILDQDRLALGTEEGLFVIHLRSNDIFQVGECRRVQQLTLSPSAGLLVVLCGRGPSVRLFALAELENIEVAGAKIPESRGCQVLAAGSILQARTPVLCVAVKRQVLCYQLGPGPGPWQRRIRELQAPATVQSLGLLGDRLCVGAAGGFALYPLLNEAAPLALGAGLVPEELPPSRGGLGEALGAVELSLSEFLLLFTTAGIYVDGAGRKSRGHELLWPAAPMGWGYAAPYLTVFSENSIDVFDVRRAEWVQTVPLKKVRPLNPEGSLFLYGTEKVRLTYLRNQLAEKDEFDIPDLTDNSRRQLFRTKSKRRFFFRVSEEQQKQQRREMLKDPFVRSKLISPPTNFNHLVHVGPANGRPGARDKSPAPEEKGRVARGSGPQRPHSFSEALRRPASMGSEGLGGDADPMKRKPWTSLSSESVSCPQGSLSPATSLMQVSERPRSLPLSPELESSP
How it was run: as §1

MARK3 = biological target: T4, MARK3 (Homo sapiens, UniProt P27448)
T4 construct: purchased Ambit Kinomescan (contract panel)
How it was run: as §1

AURKC = biological target: T5, AURKC (Homo sapiens, UniProt Q9UQB9)
T5 construct: purchased Ambit (KINOMEscan Max service)
How it was run: as §1

RIPK5 = biological target: T6, RIPK5 (Homo sapiens, UniProt Q6XUX3)
T6 construct: DNA tag (qPCR read-out)
How it was run: as §1

MYLK = biological target: T7, MYLK (Homo sapiens, UniProt Q15746)
T7 construct: purchased Ambit (KINOMEscan Max service)
How it was run: as §1

[3] = biological target: T8, RSK1(Kin.Dom.2-C-terminal) (Homo sapiens, UniProt Q15418)
T8 construct: RSK1(Kin.Dom.2-C-terminal); purchased Ambit Kinomescan (contract screening)
How it was run: as §1

S6K1 = S6K1 (Homo sapiens, UniProt P23443)
How it was run: as §1

ZAP70 = biological target: T9, ZAP70 (Homo sapiens, UniProt P43403)
T9 construct: purchased Ambit Kinomescan (contract screening service)
How it was run: as §1

LIMK1 = LIMK1 (Homo sapiens, UniProt P53667)
Sequence of LIMK1 (P53667 whole entry): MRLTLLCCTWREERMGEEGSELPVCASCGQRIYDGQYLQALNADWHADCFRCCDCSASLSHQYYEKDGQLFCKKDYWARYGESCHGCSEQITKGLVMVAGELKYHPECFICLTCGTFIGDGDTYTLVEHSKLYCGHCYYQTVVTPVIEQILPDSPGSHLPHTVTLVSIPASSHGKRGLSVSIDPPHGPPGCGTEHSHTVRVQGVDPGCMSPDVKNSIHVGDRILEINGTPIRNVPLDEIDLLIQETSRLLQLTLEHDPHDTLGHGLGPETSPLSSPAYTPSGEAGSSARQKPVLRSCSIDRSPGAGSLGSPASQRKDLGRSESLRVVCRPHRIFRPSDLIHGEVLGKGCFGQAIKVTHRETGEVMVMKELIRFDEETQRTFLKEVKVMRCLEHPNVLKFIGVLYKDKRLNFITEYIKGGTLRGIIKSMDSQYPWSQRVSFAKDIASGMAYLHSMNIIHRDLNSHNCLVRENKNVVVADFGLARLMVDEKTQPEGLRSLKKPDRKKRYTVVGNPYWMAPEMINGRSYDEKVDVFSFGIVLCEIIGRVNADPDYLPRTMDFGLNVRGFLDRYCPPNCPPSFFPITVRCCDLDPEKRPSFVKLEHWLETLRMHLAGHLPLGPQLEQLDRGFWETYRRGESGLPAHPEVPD
How it was run: as §1

PIK3C2B = biological target: T10, PIK3C2B (Homo sapiens, UniProt O00750)
T10 construct: purchased Ambit Kinomescan (contract screening)
How it was run: as §1

EIF2AK1 = biological target: T11, EIF2AK1 (Homo sapiens, UniProt Q9BQI3)
T11 construct: DNA tag (qPCR read-out)
How it was run: as §1

PCTK2 = PCTK2 (Homo sapiens, UniProt Q00537)
How it was run: as §1

PCTK3 = PCTK3 (Homo sapiens, UniProt Q07002)
Sequence of PCTK3 (Q07002 whole entry): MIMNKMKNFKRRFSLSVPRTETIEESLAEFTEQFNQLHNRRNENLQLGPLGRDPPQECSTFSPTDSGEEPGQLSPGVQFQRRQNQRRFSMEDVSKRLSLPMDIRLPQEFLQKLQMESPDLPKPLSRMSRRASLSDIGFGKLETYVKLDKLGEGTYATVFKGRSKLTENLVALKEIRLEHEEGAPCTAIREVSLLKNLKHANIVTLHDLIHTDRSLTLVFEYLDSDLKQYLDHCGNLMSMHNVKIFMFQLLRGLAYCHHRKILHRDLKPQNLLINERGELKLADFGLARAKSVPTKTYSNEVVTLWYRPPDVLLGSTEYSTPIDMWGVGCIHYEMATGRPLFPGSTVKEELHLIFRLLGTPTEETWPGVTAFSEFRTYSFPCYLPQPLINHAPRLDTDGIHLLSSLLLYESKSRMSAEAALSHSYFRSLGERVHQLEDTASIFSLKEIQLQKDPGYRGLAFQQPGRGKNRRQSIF
How it was run: as §1

PFPK5(P.falciparum) = biological target: T12, PFPK5(P.falciparum) (Plasmodium falciparum, UniProt P61075)
T12 construct: DNA tag (qPCR read-out)
T12 sequence (P61075 whole entry): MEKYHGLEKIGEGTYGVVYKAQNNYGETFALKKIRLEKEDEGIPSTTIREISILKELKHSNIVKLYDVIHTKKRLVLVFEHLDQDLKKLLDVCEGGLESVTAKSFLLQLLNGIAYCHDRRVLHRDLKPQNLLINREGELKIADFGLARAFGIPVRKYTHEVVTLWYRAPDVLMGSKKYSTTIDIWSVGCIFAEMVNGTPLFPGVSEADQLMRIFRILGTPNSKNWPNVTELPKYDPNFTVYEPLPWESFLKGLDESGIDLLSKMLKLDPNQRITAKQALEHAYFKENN
How it was run: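 Compound displacement of DNA-tagged kinase from immobilized active-site ligand; qPCR of tag as read-out.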

BMPR1B = biological target: T13, BMPR1B (Homo sapiens, UniProt O00238)
T13 construct: DNA tag (qPCR label); purchased Ambit Kinomescan (contract screening)
How it was run: as §1

TAOK3 = biological target: T14, TAOK3 (Homo sapiens, UniProt Q9H2K8)
T14 construct: purchased Ambit Kinomescan (contract screening service)
T14 sequence (Q9H2K8 whole entry): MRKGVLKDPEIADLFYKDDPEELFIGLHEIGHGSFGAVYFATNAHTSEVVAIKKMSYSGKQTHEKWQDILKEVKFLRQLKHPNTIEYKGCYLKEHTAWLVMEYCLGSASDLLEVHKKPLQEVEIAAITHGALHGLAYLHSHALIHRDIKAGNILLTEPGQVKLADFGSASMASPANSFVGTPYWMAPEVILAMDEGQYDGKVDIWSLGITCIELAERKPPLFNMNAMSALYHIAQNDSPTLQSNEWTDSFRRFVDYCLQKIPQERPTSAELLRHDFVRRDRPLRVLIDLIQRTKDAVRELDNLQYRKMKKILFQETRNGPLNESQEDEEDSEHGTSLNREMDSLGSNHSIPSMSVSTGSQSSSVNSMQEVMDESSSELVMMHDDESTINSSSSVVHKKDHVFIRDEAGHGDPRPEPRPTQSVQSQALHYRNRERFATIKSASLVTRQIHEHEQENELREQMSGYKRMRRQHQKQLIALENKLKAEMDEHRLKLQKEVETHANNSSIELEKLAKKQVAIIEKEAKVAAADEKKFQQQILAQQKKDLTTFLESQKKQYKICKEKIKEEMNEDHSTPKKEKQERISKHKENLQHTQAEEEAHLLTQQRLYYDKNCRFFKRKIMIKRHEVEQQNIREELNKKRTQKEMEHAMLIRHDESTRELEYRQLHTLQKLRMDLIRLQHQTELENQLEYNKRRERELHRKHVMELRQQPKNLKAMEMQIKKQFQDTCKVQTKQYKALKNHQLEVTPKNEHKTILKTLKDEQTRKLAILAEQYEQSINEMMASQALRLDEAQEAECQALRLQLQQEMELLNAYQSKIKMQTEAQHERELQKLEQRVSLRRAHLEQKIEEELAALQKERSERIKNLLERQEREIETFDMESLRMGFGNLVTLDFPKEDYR
How it was run: as §1

KIT(D816V) = biological target: T15, KIT(D816V) (Homo sapiens, UniProt P10721, D816V)
T15 construct: purchased Ambit (KINOMEscan Max service)
How it was run: as §1

RIOK2 = biological target: T16, RIOK2 (Homo sapiens, UniProt Q9BVS4)
T16 construct: DNA tag (qPCR read-out)
How it was run: as §1

JNK3 = biological target: T17, JNK3 (Homo sapiens, UniProt P53779); settings: 1 μM
T17 construct: purchased Ambit Kinomescan (contract panel)
How it was run: as §1

NEK3 = NEK3 (Homo sapiens, UniProt P51956)
How it was run: as §1

PIK3CA(C420R) = biological target: T18, PIK3CA(C420R) (Homo sapiens, UniProt P42336, C420R)
T18 construct: DNA tag (qPCR read-out)
How it was run: as §1

BRSK2 = biological target: T19, BRSK2 (Homo sapiens, UniProt Q8IWQ3)
T19 construct: DNA tag (qPCR read-out)
T19 sequence (Q8IWQ3 whole entry): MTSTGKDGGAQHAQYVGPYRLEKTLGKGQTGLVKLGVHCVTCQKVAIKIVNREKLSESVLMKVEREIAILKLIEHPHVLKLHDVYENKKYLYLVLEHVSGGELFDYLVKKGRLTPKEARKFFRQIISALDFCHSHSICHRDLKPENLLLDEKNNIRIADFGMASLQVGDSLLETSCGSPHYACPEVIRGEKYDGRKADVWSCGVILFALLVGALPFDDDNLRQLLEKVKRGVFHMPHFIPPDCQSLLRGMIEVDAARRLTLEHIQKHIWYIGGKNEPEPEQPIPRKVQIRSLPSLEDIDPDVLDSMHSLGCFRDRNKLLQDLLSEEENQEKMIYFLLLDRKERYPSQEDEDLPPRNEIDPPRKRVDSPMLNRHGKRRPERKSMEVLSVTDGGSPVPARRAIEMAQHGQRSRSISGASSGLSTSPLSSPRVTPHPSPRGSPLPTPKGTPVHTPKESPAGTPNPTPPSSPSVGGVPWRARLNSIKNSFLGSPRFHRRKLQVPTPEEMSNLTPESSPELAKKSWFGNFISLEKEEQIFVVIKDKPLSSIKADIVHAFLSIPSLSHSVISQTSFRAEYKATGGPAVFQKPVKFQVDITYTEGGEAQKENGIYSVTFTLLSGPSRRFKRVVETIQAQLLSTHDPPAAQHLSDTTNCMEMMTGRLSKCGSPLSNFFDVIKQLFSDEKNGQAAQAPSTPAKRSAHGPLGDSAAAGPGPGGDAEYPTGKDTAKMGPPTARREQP
How it was run: as §1

TRKB = TRKB (Homo sapiens, UniProt Q16620)
How it was run: as §1

CDK3 = CDK3 (Homo sapiens, UniProt Q00526); settings: 1 μM
How it was run: as §1

YSK4 = YSK4 (Homo sapiens, UniProt Q56UN5)
How it was run: as §1

NCCCNc1nc2c(Br)c(Br)c(Br)c(Br)c2[nH]1 [Compound 11, N-(3-aminopropyl)-4,5,6,7-tetrabromo-1H-benzo[d]imidazol-2-amine]
remaining binding at 1 µM [1]: 100% | remaining binding at 1 µM (CAMK2G): 100% | % binding (ACVR2B): 100% | remaining binding at 1 µM (PAK6): 99% | remaining binding at 1 µM (CHEK2): 80% | remaining binding at 1 µM (MST2): 100% | remaining binding at 1 µM (AURKB): 94% | remaining binding at 1 µM (PIP5K1A): 75% | % binding [2]: 93% | remaining binding at 1 µM (DMPK2): 96% | remaining binding at 1 µM (MARK3): 100% | remaining binding at 1 µM (AURKC): 83% | remaining binding at 1 µM (RIPK5): 100% | remaining binding at 1 µM (MYLK): 58% | remaining binding at 1 µM [3]: 96% | remaining binding at 1 µM (S6K1): 79% | remaining binding at 1 µM (ZAP70): 100% | remaining binding at 1 µM (LIMK1): 96% | remaining binding at 1 µM (PIK3C2B): 96% | remaining binding at 1 µM (EIF2AK1): 89% | remaining binding at 1 µM (PCTK2): 100% | remaining binding at 1 µM (PCTK3): 92% | remaining binding at 1 µM (PFPK5(P.falciparum)): 100% | remaining binding at 1 µM (BMPR1B): 100% | remaining binding at 1 µM (TAOK3): 100% | remaining binding at 1 µM (KIT(D816V)): 60% | remaining binding at 1 µM (RIOK2): 100% | % binding (JNK3): 100% | remaining binding at 1 µM (NEK3): 93% | remaining binding at 1 µM (PIK3CA(C420R)): 100% | remaining binding at 1 µM (BRSK2): 91% | remaining binding at 1 µM (TRKB): 92% | % binding (CDK3): 74% | remaining binding at 1 µM (YSK4): 95%
